These results are taken from patent US5643784A, “Indan derivatives” (H, Lundbeck A/S, priority 1990, dated 1997).

Structures are written as SMILES. pIC50: −log10 of the molar value.

Test [1] deals with α1 adrenoceptors. Description: Inhibition of 3H-prazosin binding to α1 adrenoceptors in rat brain in vitro. The conditions noted are these: for pIC50: 3H-Prazosin 0.25 nM, rat brain, 25° C., 20 min, read-out: Receptor Binding, IC50 α1 3H-Praz. How it is done:
INHIBITION OF ^3 H-PRAZOSIN BINDING TO α1 ADRENOCEPTORS IN RAT BRAIN IN VITRO
Method and results in Hyttel & Larsen, J. Neurochem, 44, 1615-1622, 1985; Skarsfeldt & Hyttel, Eur. J. Pharmacol. 125, 323-340, 1986.
Male Wistar (Mol:Wist) rats (125-200 g) are sacrificed and brain tissue is dissected and weighed. The tissue is homogenized (Ultra Turrax, 10 sec.) in 10 ml of ice-cold […] Tris buffer pH 7,7 (at 25° C.). The homogenate is centrifuged twice at 20,000 g for 10 min. at 4° C. with rehomogenization of the pellet in 10 ml ice-cold buffer. The final pellet is homogenized in 400 vol (w/v) ice-cold buffer.
Incubation tubes kept on ice in triplicate receive 100 μl of drug solution in water (or water for total binding) and 4000μl of tissue suspension (final tissue content corresponds to 10 mg original tissue). The binding experiment is initiated by addition of 100 μl of ^3 H-Prazosin (final concentration 0.25 nM) and by placing the tubes in a 25° C. water bath. After incubation for 20 min. the samples are filtered under vacuum (0-50 mBar) through Whatman GF/F filters (25 mm). The tubes are rinsed with 5 ml ice-cold buffer which then are poured on the filters. Thereafter, the filters are washed with 5 ml of buffer. The filters are placed in counting vials and 4 ml of appropriate scintillation fluid (e.g. Picofluor™15) are added. After shaking for 1 h and storage 2 hrs in the dark the content of radioactivity is determined by liquid scintillation counting. Specific binding is obtained by subtracting the nonspecific binding in the presence of 1 μM of Prazosin.
(§1) For determination of the inhibition of binding five concentrations of drugs covering 3 decades are used.
The measured cpm are plotted against drug concentration on semilogarithmic paper and the best fitting S-shaped curve is drawn. The IC50 value is determined as the concentration at which the binding is 50% of the total binding in control samples minus the nonspecific binding in the presence of 1 μM of Prazosin.
^3 H-Prazosin=[furoyl-5-^3 H]-Prazosin from New England Nuclear, specific activity approximately 20 Ci/mmol.

The target of test [2] is T1, 5-HT2 receptors (Rattus norvegicus, UniProt P14842).
T1 construct: cortical tissue is dissected and weighed; from tissue; host or cells: cortex of male Wistar rats, crude membranes
Description: Inhibition of 3H-ketanserin binding to 5-HT2 receptors in rat cortex in vitro. The conditions noted are these: for pIC50: 3H-Ketanserin 0.5 nM, rat cortex, 37° C., 30 min, read-out: Receptor Binding, IC50 5-HT2 3H-Ket. How it is done:
Method in Hyttel, Pharmacology & Toxicology, 61, 126-129, 1987.
Male Wistar (Mol:Wist) rats (125-250 g) are sacrificed and cortical tissue is dissected and weighed. The tissue is homogenized (Ultra Turrax, 10 sec.) in 10 ml of ice-cold 50 mM tris buffer pH 7.7 (at 25° C.). The centrifuge glassware used in this step has been rinsed by sonication for 10 min. in ethanol. The homogenate is centrifuged twice at 20,000 g for 10 min. at 4° C. with rehomogenization of the pellet in 10 ml ice-cold buffer. The final pellet is homogenized in 500 vol (w/v) ice-cold buffer.
Incubation tubes kept on ice in triplicate receive 100 μl of drug solution in water (or water for total binding) and 2000 μl of tissue suspension (final tissue content corresponds to 4 mg original tissue). […] After incubation for 30 min. the samples are filtered under vacuum (0-50 mBar) through Whatman GF/F filters (25 mm). The tubes are rinsed with 5 ml ice-cold buffer which are then poured on the filters. Thereafter, the filters are washed with 2×5 ml of buffer. The filters are placed in counting vials and 4 ml of appropriate scintillation fluid (e.g. Picofluor™15) are added. After shaking for 1 h and storage 2 hrs in the dark the content of radioactivity is determined by liquid scintillation counting. Specific binding is obtained by subtracting the nonspecific binding in the presence of 1 μM mianserin.
as §1
The IC50 value is determined as the concentration at which the binding is 50% of the total binding in control samples minus the nonspecific binding in the presence of 1 μM mianserin.

Test [3] addresses T2, dopamine D-2 receptors (Rattus norvegicus, UniProt P61169).
T2 construct: striatal tissue is dissected and weighed; from tissue; host or cells: corpus striatum of male Wistar rats, crude membranes
Nature of the test: Inhibition of 3H-spiperone binding to dopamine D-2 receptors in rat corpus striatum in vitro. The conditions noted are these: for pIC50: 3H-spiperone 0.5 nM, rat corpus striatum, 37° C., 10 min, read-out: Receptor Binding, IC50 DA D-2 3H-Spi. How it is done:
INHIBITION OF ^3 H-SPIPERONE BINDING TO DOPAMINE D-2 RECEPTORS IN RAT CORPUS STRIATUM IN VITRO
By this method the inhibition by drugs of the binding of ^3 H-spiperone (0.5 nM) to dopamine D-2 receptors in membranes from rat corpus striatum is determined in vitro.
Male Wistar (Mol:Wistar) rats (125-250 g) are sacrificed and striatal tissue is dissected and weighed. The tissue is homogenized (Ultra Turrax, 10 sec.) in 10 ml of ice-cold 50 mM K-phosphate buffer pH 7.4 (at 25° C.). The homogenate is centrifuged twice at 20,000 g for 10 min. at 4° C. with rehomogenization of the pellet in 10 ml ice-cold buffer. The final pellet is homogenized in 1300 vol (w/v) ice-cold buffer.
Incubation tubes kept on ice in triplicate receive 100 μl of drug solution in water (or water for total binding) and 4000 μl of tissue suspension (final tissue content corresponds to 3.08 mg original tissue). The binding experimental is initiated by addition of 100 μl of ^3 H-spiperone (final concentration 0.5 nM) and by placing the tubes in a 37° C. water bath. After incubation for 10 min. the samples are filtered under vacuum (0-50 mBar) through Whatman GF/F filters (25 mm). The tubes are rinsed with 5 ml ice-cold buffer which are then poured on the filters. Thereafter, the filters are washed with 2×5 ml of buffer. The filters are placed in counting vials and 4 ml of appropriate scintillation fluid (e.g. Picofluor ™15) are added. After shaking for 1 h and storage 2 hrs in the dark the content of radioactivity is determined by liquid scintillation counting. Specific binding is obtained by subtracting the nonspecific binding in the presence of 10 μM of 6,7-ADTN.
as §1
^3 H-Spiperone=[phenyl-4-^3 H]-spiperone from Amersham International plc. England, specific activity 15-25 Ci/mmol.

T2 sequence (P61169 whole entry): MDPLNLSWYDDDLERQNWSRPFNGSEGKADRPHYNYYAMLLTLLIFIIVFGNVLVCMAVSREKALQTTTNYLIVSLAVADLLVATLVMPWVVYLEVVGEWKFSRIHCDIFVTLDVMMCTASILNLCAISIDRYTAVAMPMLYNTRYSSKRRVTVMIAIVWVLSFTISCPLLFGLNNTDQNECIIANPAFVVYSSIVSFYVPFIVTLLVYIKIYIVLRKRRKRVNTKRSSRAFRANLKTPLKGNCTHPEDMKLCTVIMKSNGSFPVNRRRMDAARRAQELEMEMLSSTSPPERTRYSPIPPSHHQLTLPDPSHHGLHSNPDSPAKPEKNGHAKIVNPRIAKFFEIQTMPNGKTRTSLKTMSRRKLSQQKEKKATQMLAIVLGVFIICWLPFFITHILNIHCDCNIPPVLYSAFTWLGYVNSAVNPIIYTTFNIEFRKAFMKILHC
T1 sequence (P14842 whole entry): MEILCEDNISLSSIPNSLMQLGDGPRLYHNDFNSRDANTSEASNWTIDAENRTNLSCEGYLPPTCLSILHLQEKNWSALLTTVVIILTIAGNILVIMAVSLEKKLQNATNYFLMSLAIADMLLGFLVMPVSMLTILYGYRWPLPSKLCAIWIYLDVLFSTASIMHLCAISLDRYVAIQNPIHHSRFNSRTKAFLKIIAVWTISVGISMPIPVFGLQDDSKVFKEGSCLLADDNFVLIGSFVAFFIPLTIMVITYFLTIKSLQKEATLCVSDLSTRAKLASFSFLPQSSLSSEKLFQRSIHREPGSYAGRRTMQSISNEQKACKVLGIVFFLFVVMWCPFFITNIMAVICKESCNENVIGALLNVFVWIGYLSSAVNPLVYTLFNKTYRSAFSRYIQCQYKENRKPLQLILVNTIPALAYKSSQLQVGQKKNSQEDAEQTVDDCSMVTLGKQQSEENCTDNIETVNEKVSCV

As for `CN1CCN(CCN2CCN([C@@H]3C[C@@H](c4ccc(F)cc4)c4cc(Cl)ccc43)CC2)C1=O` (relative stereo) [Compound 18, Trans-1-[2-[4-[5-chloro-3-(4-fluorophenyl)-2,3-dihydro-1H-inden-1-yl]piperazin-1-yl]ethyl]-3-methyl-2-imidazolidinone], the pIC50 in test [1] was 6.22; in test [2] it was 8.55; in test [3] it was 6.72.

With `Cc1ccc2c(c1)[C@@H](c1ccc(F)cc1)C[C@@H]2N1CCN(CCO)CC1` (relative stereo) [Compound 8, Trans-4-[3-(4-fluorophenyl)-5-methyl-2,3-dihydro-1H-inden-1-yl]-1-piperazine ethanol], the pIC50 in test [1] was 6.57; in test [2], 7.92; in test [3], 6.00.

With `OCCN1CCN([C@@H]2C[C@@H](c3ccc(F)cc3)c3ccc(C(F)(F)F)cc32)CC1` (racemic) [Tefludazine, reference compound], in test [1], the “affinity to α1 adrenoceptors (in words)” value was “high affinity to all three receptor types” and the pIC50 was 7.77. Moreover, in test [2], the “affinity to 5-HT2 receptors (in words)” value is recorded as “high affinity to all three receptor types” and the pIC50 is 8.34. Besides, in test [3], the “affinity to D-2 receptors (in words)” value was “high affinity to all three receptor types” and the pIC50 is 8.00.

Take `Cc1cc([C@@H]2C[C@@H](N3CCN(CCN4CCNC4=O)CC3)c3ccc(Cl)cc32)cs1` (relative stereo) [Compound 7, Trans-1-[2-[4-[5-chloro-3-(2-methyl-4-thienyl)-2,3-dihydro-1H-inden-1-yl]piperazine-1-yl]ethyl]-2-imidazolidinone]: the pIC50 in test [1] was 6.62; in test [2] it was 8.10; in test [3], 5.55.

Turning to `CC(C)N1CCN(CCN2CCN([C@@H]3C[C@@H](c4ccc(F)cc4)c4cc(Br)ccc43)CC2)C1=O` (relative stereo) [Compound 24, Trans-1-[2-[4-[5-bromo-3-(4-fluorophenyl)-2,3-dihydro-1H-inden-1-yl]piperazin-1-yl]ethyl]-3-isopropyl-2-imidazolidinone], the pIC50 in test [1] was 6.57; in test [2], 8.19; in test [3], 6.62.

With `O=C1NCCN1CCN1CCN([C@H]2C[C@H](c3ccc(F)cc3)c3cc(C(F)(F)F)ccc32)CC1` (relative stereo) [Compound 1, Trans-1-[2-[4-[3-(4-fluorophenyl)-5-(trifluoromethyl)-2,3-dihydro-1H-inden-11-yl]-1-piperazinyl]ethyl]-2-imidazolidinone], the pIC50 in test [1] is 6.49; in test [2], 8.54; in test [3], 6.12.

Consider `CC(C)N1CCN(CCN2CCN([C@@H]3C[C@@H](c4ccc(F)cc4)c4cc(Cl)ccc43)CC2)C1=S` (relative stereo) [Compound 36, Trans-1-[2-[4-[5-chloro-3-(4-fluorophenyl)-2,3-dihydro-1-H-inden-1-yl]piperazin-1-yl]ethyl]-3-isopropyl-2-imidazolidinthione], for which the pIC50 in test [1] was 7.16; in test [2] it was 8.44; in test [3], 6.59.

Regarding `CC1(C)CNC(=O)N(CCN2CCN([C@@H]3C[C@@H](c4ccc(F)cc4)c4cc(Cl)ccc43)CC2)C1` (single isomer, unassigned) [Compound 35, (+)-Trans-1-[2-[4-[5-chloro-3-(4-fluorophenyl)-2,3-dihydro-1H-inden-1-yl]piperazin-1-yl]ethyl]-5,5-dimethyl-tetrahydro-2(1H)-pyrimidinone], the pIC50 in test [1] was 6.92; in test [2], 8.32; in test [3], 6.82.

`CSc1ccc2c(c1)[C@H](c1ccc(F)cc1)C[C@H]2N1CCN(CCN2CCN(C(C)C)C2=O)CC1` (relative stereo) [Compound 23, Trans-1-[2-[4-[3-(4-fluorophenyl)-5-(methylthio)-2,3-dihydro-1H-inden-1-yl]piperazin-1-yl]ethyl]-3-isopropyl-2-imidazolidinone]: the pIC50 in test [1] is 6.60; in test [2], 8.40; in test [3], 6.14.

Consider `OCCN1CCN([C@@H]2C[C@@H](c3ccc(F)cc3)c3cc(C(F)(F)F)ccc32)CC1` (relative stereo) [Compound 5, Trans-4-[3-(4-fluorophenyl)-5-(trifluoromethyl)-2,3-dihydro-1H-inden-1-yl]-1-piperazineethanol], for which the pIC50 in test [1] is 6.42; in test [2], 8.05; in test [3], 5.89.

In the case of `Fc1ccc([C@@H]2C[C@@H](N3CCNCC3)c3ccc(Cl)cc32)cc1` (relative stereo) [Compound 10, Trans-1-[5-chloro-3-(4-fluorophenyl)-2,3-dihydro-1H-inden-1-yl]piperazine], the pIC50 is 6.08 in test [1], 7.96 in test [2] and 5.60 in test [3].

As for `CC(C)N1CCN(CCN2CCN([C@@H]3C[C@@H](c4ccc(F)cc4)c4cc(Cl)ccc43)CC2)C1=O` (relative stereo) [Compound 11, Trans-1-[2-[4-[5-chloro-3-(4-fluorophenyl)-2,3-dihydro-1H-inden-1-yl]piperazin-1-yl]-ethyl]-3-isopropyl-2-imidazolidinone], the pIC50 is 6.59 in test [1], 8.41 in test [2] and 6.55 in test [3].

As for `Cc1ccc([C@@H]2C[C@@H](N3CCN(CCN4CCN(C(C)C)C4=O)CC3)c3ccc(Cl)cc32)cc1` (relative stereo) [Compound 26, Trans-1-[2-[4-[5-chloro-3-(4-methylphenyl)-2,3-dihydro-1H-inden-1-yl]piperazin-1-yl]ethyl]-3-isopropyl-2-imidazolidinone], the pIC50 in test [1] is 7.22; in test [2], 7.96; in test [3], 6.35.
